From patent publication US6083920A, “Compositions for modulating intracellular inositol trisphosphate concentration” (priority 1996, dated 2000) come the findings set out here.

Data set [1] concerns metabotropic glutamate receptor. Put plainly: Behavioral analysis after ICV infusion (quisqualate excitotoxicity). The class given is in vivo, male F344 rats. As for the experimental part: The animals used in this experiment were male F344 rats (Charles River Breeding Laboratories). The animals were housed individually, exposed to a 12-hour light-dark cycle, and allowed free access to food and water. The animals weighed approximately 250 g at the beginning of each experiment and were weighed daily. In addition, the animals were habituated to handling before each experiment.
Before administering various compounds, the animals were anesthetized with sodium pentobarbital (50 mg/kg, i.p.) and positioned in a sterotaxic instrument. A 26 gauge cannula was inserted into the cerebral ventricle at the following co-ordinates: 1.0 mm posterior to bregma, 1.5 mm lateral to the midline, and 4.0 mm below the dorsal surface of the neocortex. Cannulas were capped and fixed in place with dental cement. One week after cannulation, 10 μl of each of the treatment drugs was infused, ICV (i.e. into the ventricals of the brain), via a micropump at a rate of 10 μl/min. For this procedure, the animals were lightly restrained and unanesthetized. Following administration of the compound, the infusion cannula remained in position for one minute, after which the permanent in situ cannula was capped.
The compounds administered were obtained from a commercial supplier (Sigma Chemical Co., St. Louis, Mo.) and dissolved in saline prior to injection. […]
Pilot studies identified several specific behavioral measures that could be used to indicate excessive activation of the metabotropic receptor (see Table 3). […] The experiments that follow were based on an analysis of these behaviors over a two hour period after administration of the compounds of the invention. Behavioral observation was carried out by two trained observers, who worked independently of one another and who were blind to the experimental groups. […] Frequency and duration means were computed by subtracting pre-infusion means from post-infusion means.
Some of the experiments that were performed first were carried out to determine the amount of quisqualate required to produce behavioral and histological changes and the amount of lysosphingolipids that could effectively prevent or reverse these effects. Table 3 outlines the behavioral responses of rats to various doses of quisqualate (injected as described above) and the associated histological changes. The behaviors are listed as they occur chronologically. The limb clasp and reflex tests indicate the degree of decortication. A limb clasp or placement score of zero is normal, and a score of 3 is severely abnormal.
The data shown in Table 4 represents the observations of pilot studies aimed at determining the effect (on behavior) of lysosphingolipids infused directly into the lateral ventricles of the brain 30 minutes prior to infusion of quisqualate.
The experiment began one week after ICV cannulation. Animals (n=6 per group) were randomly allocated to one of 8 treatment groups: (1) saline, (2) quisqualate at 225 nmoles, (3) psychosine at 125 nmoles, (4) lysosphingomyelin at 125 nmoles, (5) lysosphingomyelin at 150 nmoles, (6) quisqualate at 225 nmoles and psychosine at 125 nmoles, (7) quisqualate at 225 nmoles and lysosphingomyelin at 125 nmoles, and (8) quisqualate at 225 nmoles and lysosphingomyelin at 150 nmoles. Following the baseline observation period, animals received the first of two ICV infusions (all infusions were of a 10 μl volume that was administered over a 1 minute period). For the first five groups listed above, this consisted of saline (10 μl/minute), for the following 3 groups the infusions were psychosine at 125 nmoles, lysosphingomyelin at 125 nmoles, or Iysosphingomyelin at 150 nmoles, respectively. Thirty minutes later, all animals received the second infusion which, for the first five groups listed above, consisted of saline, quisqualate at 225 nmoles, psychosine at 125 nmoles, lysosphingomyelin at 125 mrnoles, and lysosphingomyelin at 150 nmoles respectively. […]

Data set [2] in a line: Lysosphingolipid loading of isolated neuronal plasma membrane. The note with it: Plasma Membrane Suspension, 10 μmolar exposure. The class given is in vitro ADME, chick. An excerpt:
Total lipids were removed from the neuron samples by repeated extraction with chloroforn:methanol (2:1, vol:vol). […] The recovered lysosphingolipids were stably tagged with NBDZF by the rapid procedure of Nozowa et al. (supra). The fluorescence tagged neuronal lysosphingolipids were separated in parallel with reference standards NBDZF-Sph, NBDZF-Psy, and NBDZF-Lsm on high performance silica gel thin layer chromatography plates with acetonitrile:H2 O (10:0.5, vol:vol). The highly fluorescent, well separated bands were scraped from the plate. The fluorescence tagged lysosphingolipids are eluted from the scraped silica gel with methanol:1 N HCl (1:0.02, vol:vol). The fluorescence tagged lysosphingolipid eluates were quantitated against reference standards by fluorescence measurement in a Perkin-Elmer LS-5 Fluorescence Spectrometer.
Physiologically active phospholipase C is present on the endofacial portion of the plasma membrane. A procedure for examining its activity in an intact membrane is provided. […] One hundred Petri dishes of cultured cortical neurons were incubated overnight with 50 μCi [^3 H]myo-inositol per mL of culture medium. […] The collected neurons were homogenized in 5 mL 0.32 M sucrose and centrifuged at 1000×g for 15 minutes. The supernatant was layered on top of 2 ml 1.2 M sucrose and centrifuged at 300,000×g for 20 minutes. The sedimented pellet was resuspended by sonication for 10 seconds in 50 mM Tris buffer (pH 7.4), containing 0.3 μM CaCl2, 1 mM MgCl2, and 0.01% ascorbic acid.
The suspended plasma membrane preparation was apportioned into 250 μl samples, each providing approximately 100 μg membrane protein. Sphingosine, psychosine, and lysosphingomyelin were added to each plasma membrane sample. […] Samples were analyzed for lysosphingolipid loading (i.e., membrane lysosphingolipid content following exposure to exogenous sphingolipid) by fluorescence tagging. […] Values are reported in pmoles lysosphingolipid/mg plasma membrane protein.

Entries after “also recorded” stand apart in the source; their conditions may differ.

As to `CCCCCCCCCCCCC/C=C/[C@@H](O)[C@@H](N)CO[C@@H]1O[C@H](CO)[C@H](O)[C@H](O)[C@H]1O` [psychosine, lysocerebroside], in data set [1] (125 nmoles ICV, no quisqualate), the “convulsant behavior, compound alone” value was “displayed no convulsant behavior”. The molecule further gave an effective dose in data set [1] (ICV, rat, pilot testing) of 125 nmol. The “BEHAVIORAL RESPONSE” value in data set [1] (Psychosine 25 nmoles ICV 30 minutes prior to Quisqualate 200 nmoles) is “Moderate convulsions, teeth chattering; also recorded: akinesia and hyperactivity”; in data set [1] (Psychosine 50 nmoles ICV 30 minutes prior to Quisqualate 200 nmoles) it was “Moderate convulsions, teeth chattering; also recorded: akinesia and hyperactivity”; in data set [1] (Psychosine 100 nmoles ICV 30 minutes prior to Quisqualate 200 nmoles), “Almost complete attenuation of Quisqualate; also recorded: some teeth chattering post-injection”; in data set [1] (Psychosine 100 nmoles ICV 30 minutes prior to Quisqualate 250 nmoles) it was “Moderate convulsions, teeth chattering; also recorded: akinesia. Quisqualate markedly reduced”; in data set [1] (Psychosine 125 nmoles ICV 30 minutes prior to Quisqualate 200 nmoles), “Complete attenuation of Quisqualate response”; in data set [1] (Psychosine 125 nmoles ICV 30 minutes prior to Quisqualate 225 nmoles) it was “Complete attenuation of Quisqualate response”. Further, the “BEHAVIORAL RESPONSE” value in data set [1] (Psychosine 150 nmoles ICV 30 minutes prior to Quisqualate 250 nmoles) is reported as “Almost complete attenuation of Quisqualate”. Also, the “sedation produced by the lysosphingolipid” value in data set [1] (Psychosine 150 nmoles ICV, short term) is on record as “sedation at this dose”. Besides, the “behavioral or neurotoxic effects of the compound itself” value in data set [1] (doses as high as 125 nmoles per animal ICV) is “no behavioral or neurotoxic effects were observed”. The “behavioral and histological changes caused by quisqualate” value in data set [1] (pretreated with 125 nmoles ICV, rat) is reported as “absent”. Further, in data set [1] (pretreatment 125 nmoles ICV 30 minutes before quisqualate 225 nmoles, n=6), the “number of convulsions or spasms” value was “significantly (p<01) attenuated”. Further, in data set [2] (0 h), the “membrane lysosphingolipid content, 0 hours of incubation” value is 45 ± 5 pmoles lysosphingolipid/mg pla. For the same molecule, the “membrane lysosphingolipid content, 0.5 hours of incubation” value in data set [2] (0.5 h) is given as 75 ± 20 pmoles lysosphingolipid/mg pla. Moreover, the “membrane lysosphingolipid content, 1.0 hours of incubation” value in data set [2] (1.0 h) is reported as 120 ± 15 pmoles lysosphingolipid/mg pla. For the same molecule, the “membrane lysosphingolipid content, 2.0 hours of incubation” value in data set [2] (2.0 h) is 180 ± 15 pmoles lysosphingolipid/mg pla. In addition, the “membrane lysosphingolipid content, 3.0 hours of incubation” value in data set [2] (3.0 h) is listed as 175 ± 20 pmoles lysosphingolipid/mg pla.
